System: 695427-040-R-J1-PDC complex spheroid viability
Assay: Anticancer human tumor 695427-040-R-J1-PDC patient-derived colon adenocarcinoma cell line growth inhibition [RAS]
Settings: for viability, T/C: stronger effect = lower value; active means viability on the fitted dose curve at most 10% of control; inactive means the rest
Method in brief: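 Multi-cell-type spheroids: tumor cells plus HUVEC endothelial cells and mesenchymal stem cells. RAS-pathway inhibitors were combined with targeted agents, each dosed in half-log steps down from clinical Cmax, or from 10 microM when Cmax was unknown.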

[1] = curve of first compound, second compound 0.000949 µM
[2] = curve of first compound, second compound 0.003 µM
[3] = curve of first compound, second compound 0.00949 µM
[4] = curve of first compound, second compound 0.03 µM
[5] = curve of first compound, second compound 0.0949 µM
[6] = curve of first compound, second compound 0.3 µM
[7] = second compound 0.000949 µM, first compound 0.0316 µM
[8] = second compound 0.000949 µM, first compound 0.1 µM
[9] = second compound 0.000949 µM, first compound 0.316 µM
[10] = second compound 0.000949 µM, first compound 1 µM
[11] = second compound 0.000949 µM, first compound 3.16 µM
[12] = second compound 0.000949 µM, first compound 10 µM
[13] = second compound 0.003 µM, first compound 0.0316 µM
[14] = second compound 0.003 µM, first compound 0.1 µM
[15] = second compound 0.003 µM, first compound 0.316 µM
[16] = second compound 0.003 µM, first compound 1 µM
[17] = second compound 0.003 µM, first compound 3.16 µM
[18] = second compound 0.003 µM, first compound 10 µM
[19] = second compound 0.00949 µM, first compound 0.0316 µM
[20] = second compound 0.00949 µM, first compound 0.1 µM
[21] = second compound 0.00949 µM, first compound 0.316 µM
[22] = second compound 0.00949 µM, first compound 1 µM
[23] = second compound 0.00949 µM, first compound 3.16 µM
[24] = second compound 0.00949 µM, first compound 10 µM
[25] = second compound 0.03 µM, first compound 0.0316 µM
[26] = second compound 0.03 µM, first compound 0.1 µM
[27] = second compound 0.03 µM, first compound 0.316 µM
[28] = second compound 0.03 µM, first compound 1 µM
[29] = second compound 0.03 µM, first compound 3.16 µM
[30] = second compound 0.03 µM, first compound 10 µM
[31] = second compound 0.0949 µM, first compound 0.0316 µM
[32] = second compound 0.0949 µM, first compound 0.1 µM
[33] = second compound 0.0949 µM, first compound 0.316 µM
[34] = second compound 0.0949 µM, first compound 1 µM
[35] = second compound 0.0949 µM, first compound 3.16 µM
[36] = second compound 0.0949 µM, first compound 10 µM
[37] = second compound 0.3 µM, first compound 0.0316 µM
[38] = second compound 0.3 µM, first compound 0.1 µM
[39] = second compound 0.3 µM, first compound 0.316 µM
[40] = second compound 0.3 µM, first compound 1 µM
[41] = second compound 0.3 µM, first compound 3.16 µM
[42] = second compound 0.3 µM, first compound 10 µM
[43] = curve of first compound, second compound 0.0316 µM
[44] = curve of first compound, second compound 0.1 µM
[45] = curve of first compound, second compound 0.316 µM
[46] = curve of first compound, second compound 1 µM
[47] = curve of first compound, second compound 3.16 µM
[48] = curve of first compound, second compound 10 µM
[49] = second compound 0.0316 µM, first compound 0.00316 µM
[50] = second compound 0.0316 µM, first compound 0.01 µM
[51] = second compound 0.0316 µM, first compound 0.0316 µM
[52] = second compound 0.0316 µM, first compound 0.1 µM
[53] = second compound 0.0316 µM, first compound 0.316 µM
[54] = second compound 0.0316 µM, first compound 1 µM
[55] = second compound 0.1 µM, first compound 0.00316 µM
[56] = second compound 0.1 µM, first compound 0.01 µM
[57] = second compound 0.1 µM, first compound 0.0316 µM
[58] = second compound 0.1 µM, first compound 0.1 µM
[59] = second compound 0.1 µM, first compound 0.316 µM
[60] = second compound 0.1 µM, first compound 1 µM
[61] = second compound 0.316 µM, first compound 0.00316 µM
[62] = second compound 0.316 µM, first compound 0.01 µM
[63] = second compound 0.316 µM, first compound 0.0316 µM
[64] = second compound 0.316 µM, first compound 0.1 µM
[65] = second compound 0.316 µM, first compound 0.316 µM
[66] = second compound 0.316 µM, first compound 1 µM
[67] = second compound 1 µM, first compound 0.00316 µM
[68] = second compound 1 µM, first compound 0.01 µM
[69] = second compound 1 µM, first compound 0.0316 µM
[70] = second compound 1 µM, first compound 0.1 µM
[71] = second compound 1 µM, first compound 0.316 µM
[72] = second compound 1 µM, first compound 1 µM
[73] = second compound 3.16 µM, first compound 0.00316 µM
[74] = second compound 3.16 µM, first compound 0.01 µM
[75] = second compound 3.16 µM, first compound 0.0316 µM
[76] = second compound 3.16 µM, first compound 0.1 µM
[77] = second compound 3.16 µM, first compound 0.316 µM
[78] = second compound 3.16 µM, first compound 1 µM
[79] = second compound 10 µM, first compound 0.00316 µM
[80] = second compound 10 µM, first compound 0.01 µM
[81] = second compound 10 µM, first compound 0.0316 µM
[82] = second compound 10 µM, first compound 0.1 µM
[83] = second compound 10 µM, first compound 0.316 µM
[84] = second compound 10 µM, first compound 1 µM
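Further: viability read after seven days of drug exposure.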
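Wherever viability, T/C is given: 100% = DMSO vehicle control viability.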

NC1c2ccccc2OC12CCN(c1cnc3c(N4CCCc5ncccc54)n[nH]c3n1)CC2 (centres undefined) + CCn1c(-c2cc(N3CCN(C)CC3)cnc2C(C)OC)c2c3cc(ccc31)-c1csc(n1)CC(NC(=O)C1CC1C)C(=O)N1CCCC(N1)C(=O)OCC(C)(C)C2
209 nM: IC50 [2]
inactive: viability, T/C [7] 74.8% | viability, T/C [8] 70.1% | viability, T/C [9] 53.9% | viability, T/C [10] 29.2% | viability, T/C [11] 32.4% | viability, T/C [12] 24.9% | viability, T/C [13] 73.9% | viability, T/C [14] 59.2% | viability, T/C [15] 47% | viability, T/C [16] 24.4% | viability, T/C [17] 23.5% | viability, T/C [18] 20.5% | viability, T/C [19] 62.2% | viability, T/C [20] 45.3% | viability, T/C [21] 22.5% | viability, T/C [22] 25.1% | viability, T/C [23] 18.2% | viability, T/C [24] 15.8% | viability, T/C [25] 45.4% | viability, T/C [26] 36% | viability, T/C [27] 27.9% | viability, T/C [28] 21.1% | viability, T/C [29] 13.2% | viability, T/C [30] 16.8% | viability, T/C [31] 39.2% | viability, T/C [32] 27.3% | viability, T/C [33] 22.3% | viability, T/C [34] 15.2% | viability, T/C [35] 14.1% | viability, T/C [36] 13.1% | viability, T/C [37] 27.5% | viability, T/C [38] 27% | viability, T/C [39] 20.7% | viability, T/C [40] 14.5% | viability, T/C [41] 10.2% | viability, T/C [42] 15.5%
375 nM: IC50 [1]
72 nM: IC50 [3]
< 31.6 nM: IC50 [4] | IC50 [5] | IC50 [6]

Cc1nc(N2CCC3(CC2)COC(C)C3N)c(CO)nc1Sc1ccnc(N)c1Cl (centres undefined) + CCn1c(-c2cc(N3CCN(C)CC3)cnc2C(C)OC)c2c3cc(ccc31)-c1csc(n1)CC(NC(=O)C1CC1C)C(=O)N1CCCC(N1)C(=O)OCC(C)(C)C2
< 31.6 nM: IC50 [5] | IC50 [6]
117 nM: IC50 [4]
inactive: viability, T/C [7] 98.8% | viability, T/C [8] 93.1% | viability, T/C [9] 84.9% | viability, T/C [10] 79.5% | viability, T/C [11] 49.7% | viability, T/C [12] 26.9% | viability, T/C [13] 86.3% | viability, T/C [14] 76.7% | viability, T/C [15] 52.7% | viability, T/C [16] 53.2% | viability, T/C [17] 49.9% | viability, T/C [18] 32.6% | viability, T/C [19] 71% | viability, T/C [20] 69.8% | viability, T/C [21] 49.6% | viability, T/C [22] 50.9% | viability, T/C [23] 33.9% | viability, T/C [24] 30.6% | viability, T/C [25] 63.9% | viability, T/C [26] 42.9% | viability, T/C [27] 48.2% | viability, T/C [28] 32.4% | viability, T/C [29] 29.8% | viability, T/C [30] 17.7% | viability, T/C [31] 46.5% | viability, T/C [32] 40.5% | viability, T/C [33] 25.2% | viability, T/C [34] 29.1% | viability, T/C [35] 23% | viability, T/C [36] 18.9% | viability, T/C [37] 27.5% | viability, T/C [38] 32.3% | viability, T/C [39] 28.7% | viability, T/C [40] 27.7% | viability, T/C [41] 24.4% | viability, T/C [42] 16%
3420 nM: IC50 [1]
613 nM: IC50 [3]
1230 nM: IC50 [2]

CC(=O)OC12COC1CC(O)C1(C)C(=O)C(O)C3=C(C)C(OC(=O)C(O)C(NC(=O)OC(C)(C)C)c4ccccc4)CC(O)(C(OC(=O)c4ccccc4)C21)C3(C)C (centres undefined)
inactive: viability, T/C (compound 0.0316 µM) 71.6% [middle of 4 runs] | viability, T/C (compound 0.1 µM) 68.3% [middle of 4 runs] | viability, T/C (compound 0.316 µM) 72.2% [middle of 4 runs] | viability, T/C (compound 1 µM) 76.2% [middle of 4 runs] | viability, T/C (compound 10 µM) 90.3% [middle of 4 runs]
> 10000 nM: IC50 (curve of compound)

Nc1ccn(C2OC(CO)C(O)C2(F)F)c(=O)n1 (centres undefined) + C#Cc1c(F)ccc2cc(O)cc(-c3ncc4c(N5CC6CCC(C5)N6)nc(OCC56CCCN5CC(F)C6)nc4c3F)c12
75.7 nM: IC50 [47]
inactive: viability, T/C [49] 83.8% | viability, T/C [50] 82.2% | viability, T/C [51] 75% | viability, T/C [52] 75.7% | viability, T/C [53] 76.8% | viability, T/C [54] 70.8% | viability, T/C [55] 87.7% | viability, T/C [56] 75.5% | viability, T/C [57] 81.9% | viability, T/C [58] 68.8% | viability, T/C [59] 78.4% | viability, T/C [60] 67.2% | viability, T/C [61] 85.2% | viability, T/C [62] 79.4% | viability, T/C [63] 66.7% | viability, T/C [64] 72.3% | viability, T/C [65] 67% | viability, T/C [66] 60.5% | viability, T/C [67] 68% | viability, T/C [68] 63.4% | viability, T/C [69] 69.5% | viability, T/C [70] 59.6% | viability, T/C [71] 59.2% | viability, T/C [72] 55.7% | viability, T/C [73] 57.9% | viability, T/C [74] 62.4% | viability, T/C [75] 48.9% | viability, T/C [76] 45.4% | viability, T/C [77] 50.8% | viability, T/C [78] 44.7% | viability, T/C [79] 37.3% | viability, T/C [80] 34.8% | viability, T/C [81] 33.2% | viability, T/C [82] 36.4% | viability, T/C [83] 33.4% | viability, T/C [84] 33%
< 3.16 nM: IC50 [48]
> 1000 nM: IC50 [43] | IC50 [44] | IC50 [45] | IC50 [46]

C=CC(=O)N1CCN(c2nc(OCC3CCCN3C)nc3c(F)c(-c4nc(N)cc(C)c4C(F)(F)F)c(Cl)cc23)C(C)C1 (centres undefined) + C#Cc1c(F)ccc2cc(O)cc(-c3ncc4c(N5CC6CCC(C5)N6)nc(OCC56CCCN5CC(F)C6)nc4c3F)c12
< 3.16 nM: IC50 [48]
inactive: viability, T/C [49] 88.4% | viability, T/C [50] 104% | viability, T/C [51] 96.7% | viability, T/C [52] 95% | viability, T/C [53] 98.5% | viability, T/C [54] 92.9% | viability, T/C [55] 98.4% | viability, T/C [56] 89.5% | viability, T/C [57] 98.5% | viability, T/C [58] 85.5% | viability, T/C [59] 94.7% | viability, T/C [60] 83.3% | viability, T/C [61] 91.6% | viability, T/C [62] 88% | viability, T/C [63] 95.5% | viability, T/C [64] 83.1% | viability, T/C [65] 89% | viability, T/C [66] 67% | viability, T/C [67] 76.2% | viability, T/C [68] 78.4% | viability, T/C [69] 67.2% | viability, T/C [70] 67.3% | viability, T/C [71] 60.4% | viability, T/C [72] 58.4% | viability, T/C [73] 56.3% | viability, T/C [74] 53% | viability, T/C [75] 62.9% | viability, T/C [76] 58.7% | viability, T/C [77] 52.6% | viability, T/C [78] 41.5% | viability, T/C [79] 39.6% | viability, T/C [80] 39.8% | viability, T/C [81] 37.8% | viability, T/C [82] 45.8% | viability, T/C [83] 38.6% | viability, T/C [84] 42.8%
> 1000 nM: IC50 [43] | IC50 [44] | IC50 [45] | IC50 [46]
498 nM: IC50 [47]
